In PubChem BioAssay AID330 (DTP/NCI, 2004) one finds T/C data, which are given here for 18 compounds.

The assay deals with P388 leukemia ip, CD2F1 mice, survival T/C. Briefly: NCI In Vivo Anticancer Drug Screen. Data for tumor model P388 Leukemia (intraperitoneal) in CD2F1 (CDF1) mice. As to conditions: endpoint: median survival time, higher = longer survival. In a few lines: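 Mice carrying the transplanted tumor received test compound or vehicle. Survival was recorded in each group, and the value is the treated-group measurement divided by that of the vehicle-treated control group.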

Where [1] appears, read: dose: 25.0 mg/kg/injection, schedule: Q04DX002 (ip), vehicle: saline with Tween-80.
[2] abbreviates: dose: 50.0 mg/kg/injection, schedule: Q04DX002 (ip), vehicle: saline with Tween-80.
[3] abbreviates: dose: 60.0 mg/kg/injection, schedule: Q01DX005 (ip), vehicle: saline with Tween-80.
[4] abbreviates: dose: 120.0 mg/kg/injection, schedule: Q01DX005 (ip), vehicle: saline with Tween-80.
Setting [5] is: dose: 240.0 mg/kg/injection, schedule: Q01DX005 (ip), vehicle: saline with Tween-80.
Where [6] appears, read: dose: 15.0 mg/kg/injection, schedule: Q01DX005 (ip), vehicle: Klucel (hydroxypropylcellulose) (HPC).
The mark [7] stands for this setting: dose: 30.0 mg/kg/injection, schedule: Q01DX005 (ip), vehicle: Klucel (hydroxypropylcellulose) (HPC).
[8] abbreviates: dose: 60.0 mg/kg/injection, schedule: Q01DX005 (ip), vehicle: Klucel (hydroxypropylcellulose) (HPC).
Setting [9] is: dose: 50.0 mg/kg/injection, schedule: Q01DX005 (ip), vehicle: saline with Tween-80.
The mark [10] stands for this setting: dose: 100.0 mg/kg/injection, schedule: Q01DX005 (ip), vehicle: saline with Tween-80.
Setting [11] is: dose: 50.0 mg/kg/injection, schedule: Q01DX009 (ip), vehicle: saline.
Where [12] appears, read: dose: 200.0 mg/kg/injection, schedule: Q01DX009 (ip), vehicle: saline.
Setting [13] is: dose: 50.0 mg/kg/injection, schedule: Q01DX009 (ip), vehicle: saline with Tween-80.

Several values for one entry are separate records, joined by “and”; a condition that tells them apart may be missing. Equal entries are not always repeated. Toxic doses and inconclusive results are not listed.

On to `CC1=NN(C(=O)c2ccccc2)C(=O)C1N=Nc1ccc([N+](=O)[O-])cc1` (stereo not drawn), for which the T/C reads like this: under setting [1], 101 % of control; under setting [2], 100 % of control; (dose: 100.0 mg/kg/injection, schedule: Q04DX002 (ip), vehicle: saline with Tween-80) 88 % of control and 92 % of control.
For the compound `NC(=O)c1c(N)ncnc1N`, the T/C reads like this: (dose: 12.5 mg/kg/injection, schedule: Q04DX002 (ip), vehicle: saline with Tween-80) 102 % of control; under setting [1], 104 % of control; under setting [2], 101 % of control.
Take `C=CCn1c(-c2ccccn2)n[nH]c1=S`: the T/C reads like this: under setting [3], 102 % of control; under setting [4], 101 % of control; under setting [5], 100 % of control.
On to `Clc1cc2c(c(CSC3=NCN(CC4CC4)CN3)c1)OCOC2`, for which the T/C under setting [6] is 99 % of control; the T/C under setting [7] is 100 % of control; the T/C under setting [8] is 98 % of control and 101 % of control.
On to `COc1ccc2nc3ccccc3c(SCCCCCCSc3c4ccccc4nc4ccc(OC)cc34)c2c1`, for which the T/C was 101 % of control under setting [6]; 98 % of control under setting [7]; 100 % of control and 89 % of control and 90 % of control under setting [8]; 89 % of control (dose: 240.0 mg/kg/injection, schedule: Q01DX005 (ip), vehicle: Klucel (hydroxypropylcellulose) (HPC)).
`CCN(CC)c1cc2oc3cc(N)cc(=N)c-3nc2cc1C`: the T/C is 102 % of control (dose: 12.5 mg/kg/injection, schedule: Q01DX005 (ip), vehicle: saline); 98 % of control (dose: 25.0 mg/kg/injection, schedule: Q01DX005 (ip), vehicle: saline); 112 % of control under setting [9]; 96 % of control (dose: 50.0 mg/kg/injection, schedule: Q01DX005 (ip), vehicle: saline); 107 % of control under setting [10]; 102 % of control (dose: 200.0 mg/kg/injection, schedule: Q01DX005 (ip), vehicle: saline with Tween-80).
On to `CCOC(=O)C(Br)(C(=O)OCC)C(C)C`, for which the T/C is, setting by setting: under setting [11], 111 % of control; (dose: 100.0 mg/kg/injection, schedule: Q01DX009 (ip), vehicle: saline) 109 % of control; under setting [12], 120 % of control.
Take `O=C(O)c1cc2cc([N+](=O)[O-])ccc2[se]1`: the T/C was 100 % of control (dose: 12.5 mg/kg/injection, schedule: Q01DX009 (ip), vehicle: suspension in saline); 101 % of control (dose: 25.0 mg/kg/injection, schedule: Q01DX009 (ip), vehicle: suspension in saline); 86 % of control under setting [11]; 102 % of control (dose: 50.0 mg/kg/injection, schedule: Q01DX009 (ip), vehicle: suspension in saline); 100 % of control under setting [12].
`CCOC(=O)c1nc(SC)n(C)c1C(=O)OCC`: the T/C is, setting by setting: under setting [3], 100 % of control; under setting [4], 100 % of control; under setting [5], 105 % of control.
As for `O=NN(CCCl)C(=O)Nc1ccc(I)cc1`, the T/C is, setting by setting: (dose: 3.0 mg/kg/injection, schedule: Q01DX009 (ip), vehicle: saline with Tween-80) 154 % of control; (dose: 4.5 mg/kg/injection, schedule: Q01DX009 (ip), vehicle: saline with Tween-80) 163 % of control; (dose: 6.25 mg/kg/injection, schedule: Q04DX003 (ip), vehicle: saline with Tween-80) 154 % of control; (dose: 11.0 mg/kg/injection, schedule: Q01DX009 (ip), vehicle: saline with Tween-80) 150 % of control and 152 % of control; (dose: 12.5 mg/kg/injection, schedule: Q04DX003 (ip), vehicle: saline with Tween-80) 163 % of control; (dose: 16.5 mg/kg/injection, schedule: Q01DX009 (ip), vehicle: saline with Tween-80) 154 % of control and 157 % of control. In addition, the T/C was 152 % of control and 154 % of control and 163 % of control (dose: 25.0 mg/kg/injection, schedule: Q01DX009 (ip), vehicle: saline with Tween-80); 150 % of control (dose: 25.0 mg/kg/injection, schedule: Q04DX003 (ip), vehicle: saline sonified); 171 % of control and 177 % of control (dose: 37.5 mg/kg/injection, schedule: Q01DX009 (ip), vehicle: saline with Tween-80); 200 % of control under setting [13]; 183 % of control (dose: 50.0 mg/kg/injection, schedule: Q04DX003 (ip), vehicle: saline sonified).
For `CCN=C(c1ccc(NC(=O)c2ccc(C(=O)Nc3ccc(C(=NCC)N(CC)CC)cc3)cc2)cc1)N(CC)CC`, the T/C is, setting by setting: (dose: 0.39 mg/kg/injection, schedule: Q01DX005 (ip), vehicle: Klucel (hydroxypropylcellulose) (HPC)) 102 % of control; (dose: 0.78 mg/kg/injection, schedule: Q01DX005 (ip), vehicle: Klucel (hydroxypropylcellulose) (HPC)) 100 % of control; (dose: 1.56 mg/kg/injection, schedule: Q01DX005 (ip), vehicle: Klucel (hydroxypropylcellulose) (HPC)) 101 % of control.
Regarding `Oc1c[nH]c(=S)s1`, the T/C (dose: 12.5 mg/kg/injection, schedule: Q01DX009 (ip), vehicle: other) is 112 % of control; the T/C (dose: 25.0 mg/kg/injection, schedule: Q01DX009 (ip), vehicle: other) was 106 % of control; the T/C (dose: 50.0 mg/kg/injection, schedule: Q01DX009 (ip), vehicle: other) was 111 % of control; the T/C (dose: 100.0 mg/kg/injection, schedule: Q01DX009 (ip), vehicle: other) was 102 % of control; the T/C (dose: 200.0 mg/kg/injection, schedule: Q01DX009 (ip), vehicle: other) is 117 % of control.
With `CSCS(=O)CC(C)C` (stereo not drawn), the T/C is, setting by setting: (dose: 50.0 mg/kg/injection, schedule: Q01DX005 (ip), vehicle: water) 104 % of control; (dose: 100.0 mg/kg/injection, schedule: Q01DX005 (ip), vehicle: water) 102 % of control; (dose: 200.0 mg/kg/injection, schedule: Q01DX005 (ip), vehicle: water) 105 % of control.
Regarding `O=C(/C=C(\C(=O)c1ccccc1)c1ccccc1)c1ccccc1`, the T/C by setting is: (dose: 50.0 mg/kg/injection, schedule: Q01DX009 (ip), vehicle: saline sonified) 100 % of control; (dose: 100.0 mg/kg/injection, schedule: Q01DX009 (ip), vehicle: saline sonified) 100 % of control; (dose: 200.0 mg/kg/injection, schedule: Q01DX009 (ip), vehicle: saline sonified) 100 % of control.
As to `O=C1[N-]C(=S)c2cccn21.O=C1[N-]C(=S)c2cccn21.[Pd+2]`, the T/C runs as follows: (dose: 12.5 mg/kg/injection, schedule: Q01DX005 (ip), vehicle: saline with Tween-80) 103 % of control; (dose: 25.0 mg/kg/injection, schedule: Q01DX005 (ip), vehicle: saline with Tween-80) 103 % of control; under setting [9], 99 % of control; under setting [10], 99 % of control.
Regarding `COc1cc(/C=C2\N=C(C)OC2=O)ccc1O`, the T/C by setting is: (dose: 50.0 mg/kg/injection, schedule: Q01DX005 (ip), vehicle: Klucel (hydroxypropylcellulose) (HPC)) 106 % of control; (dose: 100.0 mg/kg/injection, schedule: Q01DX005 (ip), vehicle: Klucel (hydroxypropylcellulose) (HPC)) 101 % of control; (dose: 200.0 mg/kg/injection, schedule: Q01DX005 (ip), vehicle: Klucel (hydroxypropylcellulose) (HPC)) 104 % of control.
As to `CCCCCCCCCCCCCCCCCCOCC(O)CO` (stereo not drawn), the T/C reads like this: (dose: 25.0 mg/kg/injection, schedule: Q01DX009 (ip), vehicle: saline + alcohol) 91 % of control; (dose: 50.0 mg/kg/injection, schedule: Q01DX009 (ip), vehicle: saline + alcohol) 92 % of control; (dose: 100.0 mg/kg/injection, schedule: Q01DX009 (ip), vehicle: saline + alcohol) 94 % of control; (dose: 200.0 mg/kg/injection, schedule: Q01DX009 (ip), vehicle: saline + alcohol) 100 % of control; (dose: 400.0 mg/kg/injection, schedule: Q01DX009 (ip), vehicle: saline + alcohol) 100 % of control.
Turning to `CC(C)(CO)NC(=O)c1ccccc1Br`, the T/C is, setting by setting: under setting [13], 100 % of control; (dose: 100.0 mg/kg/injection, schedule: Q01DX009 (ip), vehicle: saline with Tween-80) 100 % of control; (dose: 200.0 mg/kg/injection, schedule: Q01DX009 (ip), vehicle: saline with Tween-80) 99 % of control.
